Among the data in patent US7091202B2, “4-arylspirocycloalkyl-2-aminopyrimidine carboxamide KCNQ potassium channel modulators” (Bristol-Myers Squibb Company, priority 2004, dated 2006) are EC50 values, retold here.

The experiment concerns the target T1, hQ23 (HEK-293 cell line stably transfected with one of the members of the KCNQ family) (Homo sapiens, UniProt O43525+O43526).
T1 construct: expressed in transfected cells; host or cells: HEK-293, stably transfected
Description: Thallium flux assay for KCNQ channel blockers (FLIPR, BTC dye). The experiment is classed as cell-based. The procedure, abridged:
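HEK-293 cells stably expressing a KCNQ member, loaded with BTC-AM (2 μM) in chloride-free buffer, pH 7.3; compounds added at 1% DMSO, then Tl2SO4 stimulus on FLIPR (488/540 nm, 60 s). Minimal active concentration set at ≥4 SD above negative control; IC50 from 10-point 1:3 series, single-site logistic fit versus the positive-control blocker.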

[1] abbreviates: Table 2, thallium flux, HEK-293.
The mark [2] stands for this setting: hQ23 cells, thallium flux assay.

As a reminder, the EC50 is the concentration needed to bring the measured effect to its halfway point. Low readings indicate an effect from little substance, high ones a need for much substance.

T1 sequence (O43526 whole entry): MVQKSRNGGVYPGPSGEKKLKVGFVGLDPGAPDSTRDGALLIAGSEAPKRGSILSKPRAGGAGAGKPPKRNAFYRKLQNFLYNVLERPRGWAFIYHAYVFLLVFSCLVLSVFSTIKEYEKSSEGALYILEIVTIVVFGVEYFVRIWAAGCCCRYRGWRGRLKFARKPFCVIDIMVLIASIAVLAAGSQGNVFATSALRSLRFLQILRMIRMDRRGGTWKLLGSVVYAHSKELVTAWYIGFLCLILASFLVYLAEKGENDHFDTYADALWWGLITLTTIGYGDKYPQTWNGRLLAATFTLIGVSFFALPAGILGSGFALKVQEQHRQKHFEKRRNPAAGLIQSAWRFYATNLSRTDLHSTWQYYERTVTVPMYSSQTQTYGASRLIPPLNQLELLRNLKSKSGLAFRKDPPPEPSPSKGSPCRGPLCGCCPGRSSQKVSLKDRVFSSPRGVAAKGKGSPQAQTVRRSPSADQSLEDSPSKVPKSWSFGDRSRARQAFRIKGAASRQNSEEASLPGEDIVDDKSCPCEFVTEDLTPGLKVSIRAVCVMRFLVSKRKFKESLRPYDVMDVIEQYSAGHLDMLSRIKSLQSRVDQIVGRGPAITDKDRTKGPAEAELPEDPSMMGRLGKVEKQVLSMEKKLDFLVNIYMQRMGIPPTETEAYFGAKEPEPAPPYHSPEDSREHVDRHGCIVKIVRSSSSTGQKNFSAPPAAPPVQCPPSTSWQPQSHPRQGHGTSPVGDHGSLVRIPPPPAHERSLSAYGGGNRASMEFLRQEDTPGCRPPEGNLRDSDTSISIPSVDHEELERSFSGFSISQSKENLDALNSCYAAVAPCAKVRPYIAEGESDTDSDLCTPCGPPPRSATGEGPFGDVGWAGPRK
T1 sequence (O43525 whole entry): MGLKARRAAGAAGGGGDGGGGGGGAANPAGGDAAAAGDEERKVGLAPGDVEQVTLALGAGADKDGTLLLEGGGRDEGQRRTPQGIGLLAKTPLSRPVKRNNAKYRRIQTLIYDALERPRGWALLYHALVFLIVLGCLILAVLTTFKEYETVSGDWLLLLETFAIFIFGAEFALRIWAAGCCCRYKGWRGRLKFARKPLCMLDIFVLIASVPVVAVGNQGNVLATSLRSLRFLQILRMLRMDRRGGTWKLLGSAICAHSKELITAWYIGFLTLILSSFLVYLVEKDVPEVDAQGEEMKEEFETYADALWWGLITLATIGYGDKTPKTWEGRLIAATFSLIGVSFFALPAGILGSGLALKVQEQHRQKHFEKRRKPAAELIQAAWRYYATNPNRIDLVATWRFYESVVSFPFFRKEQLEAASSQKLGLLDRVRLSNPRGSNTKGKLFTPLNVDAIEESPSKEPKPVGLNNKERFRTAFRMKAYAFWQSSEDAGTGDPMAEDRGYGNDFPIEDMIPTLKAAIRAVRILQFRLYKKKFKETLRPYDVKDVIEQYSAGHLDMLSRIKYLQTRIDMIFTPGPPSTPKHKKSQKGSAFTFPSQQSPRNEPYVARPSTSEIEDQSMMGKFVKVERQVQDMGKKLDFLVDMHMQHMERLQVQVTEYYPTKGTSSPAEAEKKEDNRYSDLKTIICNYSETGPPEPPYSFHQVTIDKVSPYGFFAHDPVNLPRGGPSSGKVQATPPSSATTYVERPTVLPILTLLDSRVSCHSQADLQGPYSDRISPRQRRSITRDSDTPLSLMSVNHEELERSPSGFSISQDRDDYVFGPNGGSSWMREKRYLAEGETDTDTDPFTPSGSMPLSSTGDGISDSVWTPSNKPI

Regarding `CC1CCN(c2ncc(C(=O)NCc3ccc(Cl)cc3Cl)c(C3(c4ccc(Cl)cc4)CCC3)n2)CC1` [Example 64, 5-pyrimidinecarboxamide, 4-[1-(4-chlorophenyl)cyclobutyl]-N-[(2,4-dichlorophenyl)methyl]-2-(4-methyl-1-piperidinyl)-], the midpoint of the response (Table 3, thallium flux, HEK-293), the EC50, lay at 0.034 µM.

Consider `CC1CCN(c2ncc(C(=O)N3CCc4ccccc4C3)c(C3(c4ccccc4)CC3)n2)CC1` [Example 26, isoquinoline, 1,2,3,4-tetrahydro-2-[[2-(4-methyl-1-piperidinyl)-4-(1-phenylcyclopropyl)-5-pyrimidinyl]carbonyl]-], for which the EC50 under setting [1] is 0.546 µM.

Consider `CCN(Cc1ccccc1)C(=O)c1cnc(N2CCC(C)CC2)nc1C1(c2ccc(F)cc2)CCCC1` [Example 230, 5-pyrimidinecarboxamide, N-ethyl-4-[1-(4-fluorophenyl)cyclopentyl]-2-(4-methyl-1-piperidinyl)-N-(phenylmethyl)-], for which the response (hQ23 cells, thallium flux) was half-maximal at 0.168 µM (EC50). Compound `CC1CCCN(c2ncc(C(=O)N(C(C)C)C(C)C)c(C3(c4ccccc4)CCCC3)n2)C1` (stereo not drawn) [Example 82, 5-pyrimidinecarboxamide,N,N-bis(1-methylethyl)-2-(3-methyl-1-piperidinyl)-4-(1-phenylcyclopentyl)-] returned an EC50 (hQ23 cells, thallium flux) of 0.285 µM.

`CC1CCC(Nc2ncc(C(=O)NCc3cccc4ccccc34)c(C3(c4ccc(F)cc4)CCCC3)n2)CC1` (stereo not drawn) [Example 248, 5-pyrimidinecarboxamide, 4-[1-(4-fluorophenyl)cyclopentyl]-2-[(4-methylcyclohexyl)amino]-N-(1-naphthalenylmethyl)-] had an EC50 under setting [2] of 0.01 µM. Where the note is “hQ23 cells, thallium flux”, `CC1CCN(c2ncc(C(=O)NCc3ccc4c(c3)OCO4)c(C3(c4ccc(Cl)cc4)CCCC3)n2)CC1` [Example 154, 5-pyrimidinecarboxamide, N-(1,3-benzodioxol-5-ylmethyl)-4-[1-(4-chlorophenyl)cyclopentyl]-2-(4-methyl-1-piperidinyl)-] had an EC50 of 0.01 µM. For the compound `CCC(C)Nc1ncc(C(=O)NCc2ccc(Cl)cc2Cl)c(C2(c3ccc(F)cc3)CCCC2)n1` (stereo not drawn) [Example 265, 5-pyrimidinecarboxamide, N-[(2,4-dichlorophenyl)methyl]-4-[1-(4-fluorophenyl)cyclopentyl]-2-[(1-methylpropyl)amino]-], a half-maximal effect under setting [2] (EC50) was put at 0.138 µM.

Compound `CN1CCN(c2ncc(C(=O)N(C)Cc3ccccc3)c(C3(c4ccc(Cl)cc4)CCCC3)n2)CC1` [Example 139, 5-pyrimidinecarboxamide, 4-[1-(4-chlorophenyl)cyclopentyl]-N-methyl-2-(4-methyl-1-piperazinyl)-N-(phenylmethyl)-] came in with an EC50 (hQ23 cells, thallium flux) of 0.07 µM.

`CCN(C)C(=O)c1cnc(NC2CCC(C)CC2)nc1C1(c2ccc(F)cc2)CCCC1` (stereo not drawn) [Example 225, 5-pyrimidinecarboxamide, N-ethyl-4-[1-(4-fluorophenyl)cyclopentyl]-N-methyl-2-[(4-methylcyclohexyl)amino]-]: the EC50 (hQ23 cells, thallium flux) stood at 0.452 µM. Against the preceding compound, the EC50 is about 6.5-fold higher. On to `CC1CCC(Nc2ncc(C(=O)NCc3ccc(Cl)cc3Cl)c(C3(c4ccc(F)cc4)CCCC3)n2)CC1` (stereo not drawn) [Example 260, 5-pyrimidinecarboxamide, N-[(2,4-dichlorophenyl)methyl]-4-[1-(4-fluorophenyl)cyclopentyl]-2-[(4-methylcyclohexyl)amino]-], for which the EC50 under setting [2] came to 0.01 µM. That is a double-digit nanomolar value. Where the note is “hQ23 cells, thallium flux”, `CN(Cc1ccccc1)C(=O)c1cnc(NC2CCCC2)nc1C1(c2ccccc2)CCCC1` [Example 71, 5-pyrimidinecarboxamide, 2-(cyclopentylamino)-N-methyl-4-(1-phenylcyclopentyl)-N-(phenylmethyl)-] showed an EC50 of 0.718 µM. Take `CC1CCN(c2ncc(C(=O)NCc3cccc4ccccc34)c(C3(c4ccc(F)cc4)CCCC3)n2)CC1` [Example 251, 5-pyrimidinecarboxamide, 4-[1-(4-fluorophenyl)cyclopentyl]-2-(4-methyl-1-piperidinyl)-N-(1-naphthalenylmethyl)-]: the EC50 under setting [2] was 0.015 µM. Under setting [2], `CC1CCC(Nc2ncc(C(=O)NCc3ccc(F)cc3F)c(C3(c4ccc(F)cc4)CCCC3)n2)CC1` (stereo not drawn) [Example 267, 5-pyrimidinecarboxamide, N-[(2,4-difluorophenyl)methyl]-4-[1-(4-fluorophenyl)cyclopentyl]-2-[(4-methylcyclohexyl)amino]-] returned an EC50 of 0.048 µM. Consider `CCN(C(=O)c1cnc(N2CCCC2)nc1C1(c2ccc(F)cc2)CCCC1)C1CCCCC1` [Example 213, 5-pyrimidinecarboxamide, N-cyclohexyl-N-ethyl-4-[1-(4-fluorophenyl)cyclopentyl]-2-(1-pyrrolidinyl)-], for which, for the setting “hQ23 cells, thallium flux”, the EC50 is 0.68 µM.

Turning to `CC1CCCN(c2ncc(C(=O)NCc3ccc(F)cc3F)c(C3(c4ccccc4)CCCC3)n2)C1` (stereo not drawn) [Example 118, 5-pyrimidinecarboxamide, N-[(2,4-difluorophenyl)methyl]-2-(3-methyl-1-piperidinyl)-4-(1-phenylcyclopentyl)-], the response (hQ23 cells, thallium flux) was half-maximal at 0.037 µM (EC50). `O=C(NCc1cccc2ccccc12)c1cnc(NC2CC2)nc1C1(c2ccc(Cl)cc2)CCCC1` [Example 165, 5-pyrimidinecarboxamide, 4-[1-(4-chlorophenyl)cyclopentyl]-2-(cyclopropylamino)-N-(1-naphthalenylmethyl)-] had an EC50 (hQ23 cells, thallium flux) of 0.63 µM. `CCC(C)Nc1ncc(C(=O)NC(C)c2cccc3ccccc23)c(C2(c3ccccc3)CCCC2)n1` (stereo not drawn) [Example 99, 5-pyrimidinecarboxamide, 2-[(1-methylpropyl)amino]-N-[1-(1-naphthalenyl)ethyl]-4-(1-phenylcyclopentyl)-]: under “hQ23 cells, thallium flux”, the EC50 worked out at 0.293 µM.

As to `CC1CCCN(c2ncc(C(=O)NC(C)c3cccc4ccccc34)c(C3(c4ccc(F)cc4)CCCC3)n2)C1` (stereo not drawn) [Example 244, 5-pyrimidinecarboxamide, 4-[1-(4-fluorophenyl)cyclopentyl]-2-(3-methyl-1-piperidinyl)-N-[1-(1-naphthalenyl)ethyl]-], the EC50 under setting [2] came to 0.01 µM.

For `CC1CCN(c2ncc(C(=O)NCc3ccc(Cl)cc3Cl)c(C3(c4ccccc4)CC3)n2)CC1` [Example 41, 5-pyrimidinecarboxamide, N-[(2,4-dichlorophenyl)methyl]-2-(4-methyl-1-piperidinyl)-4-(1-phenylcyclopropyl)-], the response under setting [1] was half-maximal at 0.22 µM (EC50). As for `CCC(C)Nc1ncc(C(=O)NCc2ccc(Cl)cc2Cl)c(C2(c3ccc(Cl)cc3)CCCC2)n1` (stereo not drawn) [Example 183, 5-pyrimidinecarboxamide, 4-[1-(4-chlorophenyl)cyclopentyl]-N-[(2,4-dichlorophenyl)methyl]-2-[(1-methylpropyl)amino]-], the EC50 (hQ23 cells, thallium flux) turned out to be 0.01 µM. Consider `CC1CCC(Nc2ncc(C(=O)NC(C)c3cccc4ccccc34)c(C3(c4ccc(F)cc4)CCCC3)n2)CC1` (stereo not drawn) [Example 241, 5-pyrimidinecarboxamide, 4-[1-(4-fluorophenyl)cyclopentyl]-2-[(4-methylcyclohexyl)amino]-N-[1-(1-naphthalenyl)ethyl]-], for which, under setting [2], a half-maximal response (EC50) required 0.01 µM. For the setting “hQ23 cells, thallium flux”, `CC1CCN(c2ncc(C(=O)NCc3cc(F)cc(C(F)(F)F)c3)c(C3(c4ccc(Cl)cc4)CCCC3)n2)CC1` [Example 193, 5-pyrimidinecarboxamide, 4-[1-(4-chlorophenyl)cyclopentyl]-N-[[3-fluoro-5-(trifluoromethyl)phenyl]methyl]-2-(4-methyl-1-piperidinyl)-] gave an EC50 of 0.012 µM. Under setting [2], `CC1CCN(c2ncc(C(=O)NCc3ccc(F)cc3F)c(C3(c4ccc(F)cc4)CCCC3)n2)CC1` [Example 270, 5-pyrimidinecarboxamide, N-[(2,4-difluorophenyl)methyl]-4-[1-(4-fluorophenyl)cyclopentyl]-2-(4-methyl-1-piperidinyl)-] came in with an EC50 of 0.142 µM. In turn, `CC1CCCN(c2ncc(C(=O)NCc3ccc4c(c3)OCO4)c(C3(c4ccc(F)cc4)CCCC3)n2)C1` (stereo not drawn) [Example 236, 5-pyrimidinecarboxamide, N-(1,3-benzodioxol-5-ylmethyl)-4-[1-(4-fluorophenyl)cyclopentyl]-2-(3-methyl-1-piperidinyl)-] returned an EC50 under setting [2] of 0.039 µM. As for `CC(NC(=O)c1cnc(NC2CCCC2)nc1C1(c2ccc(F)cc2)CCCC1)c1cccc2ccccc12` (stereo not drawn) [Example 247, 5-pyrimidinecarboxamide, 2-(cyclopentylamino)-4-[1-(4-fluorophenyl)cyclopentyl]-N-[1-(1-naphthalenyl)ethyl]-], the EC50 under setting [2] turned out to be 0.092 µM. For the compound `CCC(C)Nc1ncc(C(=O)NC(C)c2cccc3ccccc23)c(C2(c3ccc(Cl)cc3)CCCC2)n1` (stereo not drawn) [Example 162, 5-pyrimidinecarboxamide, 4-[1-(4-chlorophenyl)cyclopentyl]-2-[(1-methylpropyl)amino]-N-[1-(1-naphthalenyl)ethyl]-], the EC50 (hQ23 cells, thallium flux) stood at 0.113 µM. This counts as sub-micromolar. Under setting [1], `CC1CCN(c2ncc(C(=O)NC(C)c3ccc(F)cc3)c(C3(c4ccccc4)CC3)n2)CC1` (stereo not drawn) [Example 51, 5-pyrimidinecarboxamide, N-[1-(4-fluorophenyl)ethyl]-2-(4-methyl-1-piperidinyl)-4-(1-phenylcyclopropyl)-] showed an EC50 of 0.672 µM. On to `CC1CCC(Nc2ncc(C(=O)NCc3cccc4ccccc34)c(C3(c4ccccc4)CC3)n2)CC1` (stereo not drawn) [Example 36, 5-pyrimidinecarboxamide, 2-[(4-methylcyclohexyl)amino]-N-(1-naphthalenylmethyl)-4-(1-phenylcyclopropyl)-], for which, under setting [1], the EC50 is 0.586 µM. The EC50 values of the last two compounds are within 1.5-fold of each other.

The compound `CCC(C)Nc1ncc(C(=O)NCc2cccc3ccccc23)c(C2(c3ccc(F)cc3)CCCC2)n1` (stereo not drawn) [Example 252, 5-pyrimidinecarboxamide, 4-[1-(4-fluorophenyl)cyclopentyl]-2-[(1-methylpropyl)amino]-N-(1-naphthalenylmethyl)-] had an EC50 under setting [2] of 0.35 µM. Under setting [1], `CCN(Cc1ccccc1)C(=O)c1cnc(N2CCCC(C)C2)nc1C1(c2ccccc2)CC1` (stereo not drawn) [Example 30, 5-pyrimidinecarboxamide, N-ethyl-2-(3-methyl-1-piperidinyl)-4-(1-phenylcyclopropyl)-N-(phenylmethyl)-] displayed an EC50 of 0.634 µM. In other words, the sub-micromolar range.
